Test results as given in patent US20060263802A1 (priority 2003, published 2006).

Legend:
Assay type in all cases: binding
[1] = test system: human monoclonal antibody CRJB
[2] = test system: human monoclonal antibody CRJB; remark: listed apart in the source
[3] = test system: human monoclonal antibody CR57
[4] = test system: human monoclonal antibody CRJA
[5] = test system: human monoclonal antibody CR57; remark: listed apart in the source
[6] = test system: human monoclonal antibody CRJA; remark: listed apart in the source

| Sequence | Binding of CRJB to linear peptide (PEPSCAN-ELISA signal) [1] | Binding of CRJB (10 μg/ml) to looped/cyclic peptide (PEPSCAN-ELISA signal) [2] | Binding of CR57 to linear peptide (PEPSCAN-ELISA signal) [3] | Binding of CRJA to linear peptide (PEPSCAN-ELISA signal) [4] | Binding of CR57 (10 μg/ml) to looped/cyclic peptide (PEPSCAN-ELISA signal) [5] | Binding of CRJA (10 μg/ml) to looped/cyclic peptide (PEPSCAN-ELISA signal) [6] | Binding of CRJB (10 μg/ml) to looped/cyclic peptide (PEPSCAN-ELISA) [2] | Binding of CR57 (10 μg/ml) to looped/cyclic peptide (PEPSCAN-ELISA) [5] | Binding of CRJA (10 μg/ml) to looped/cyclic peptide (PEPSCAN-ELISA) [6] | Binding of human monoclonal antibody CRJB to linear peptide (PEPSCAN-ELISA signal) [1] | Binding of CRJB to looped/cyclic peptide (PEPSCAN-ELISA signal) [2] | Binding of human monoclonal antibody CR57 to linear peptide (PEPSCAN-ELISA signal) [3] | Binding of human monoclonal antibody CRJA to linear peptide (PEPSCAN-ELISA signal) [4] | Binding of CR57 to looped/cyclic peptide (PEPSCAN-ELISA signal) [5] | Binding of CRJA to looped/cyclic peptide (PEPSCAN-ELISA signal) [6] |
| --- | --- | --- | --- | --- | --- | --- | --- | --- | --- | --- | --- | --- | --- | --- | --- |
| TTFKRKHFRPTPDAC | 99 | 78 | 74 | 111 | 86 | 89 |  |  |  |  |  |  |  |  |  |
| TTKESLVIISPSVAD | 121 | 71 | 78 | 91 | 114 | 108 |  |  |  |  |  |  |  |  |  |
| TTKSVSFRRLSHLRK | 118 |  | 66 | 94 |  |  | 72 | 92 | 97 |  |  |  |  |  |  |
| TTTFKRKHFRPTPDA | 108 | 99 | 80 | 76 | 90 | 93 |  |  |  |  |  |  |  |  |  |
| TVFKDGDEAEDFVEV |  |  |  |  |  |  |  |  |  | 124 | 90 | 107 | 92 | 111 | 110 |
| TVKTTKESLVIISPS | 116 | 55 | 76 | 93 | 94 | 92 |  |  |  |  |  |  |  |  |  |
| TWNEILPSKGCLRVG | 146 |  | 97 | 93 |  |  | 113 | 132 | 127 |  |  |  |  |  |  |
| TWVAMQTSNETKWCP | 118 |  | 78 | 100 |  |  | 89 | 87 | 84 |  |  |  |  |  |  |
| TYCSTNHDYTIWMPE | 107 | 93 | 96 | 87 | 104 | 97 |  |  |  |  |  |  |  |  |  |
| VADLDPYDRSLHSRV | 113 | 74 | 71 | 92 | 85 | 89 |  |  |  |  |  |  |  |  |  |
| VAMQTSNETKWCPPD | 104 |  | 86 | 97 |  |  | 66 | 45 | 90 |  |  |  |  |  |  |
| VAVSSTYCSTNHDYT | 114 | 83 | 85 | 106 | 103 | 88 |  |  |  |  |  |  |  |  |  |
| VDERGLYKSLKGACK | 108 |  | 50 | 82 |  |  | 80 | 105 | 96 |  |  |  |  |  |  |
| VEDEGCTNLSGFSYM | 103 | 78 | 74 | 82 | 83 | 86 |  |  |  |  |  |  |  |  |  |
